# pIC50: −log10 of the molar value.
# Target: MAPK14 (human) (UniProt Q16539)
# Assay: Assessment of MAPK14 Kinase Activity
# Chain of MAPK14 (human) (Q16539 whole entry, looked up): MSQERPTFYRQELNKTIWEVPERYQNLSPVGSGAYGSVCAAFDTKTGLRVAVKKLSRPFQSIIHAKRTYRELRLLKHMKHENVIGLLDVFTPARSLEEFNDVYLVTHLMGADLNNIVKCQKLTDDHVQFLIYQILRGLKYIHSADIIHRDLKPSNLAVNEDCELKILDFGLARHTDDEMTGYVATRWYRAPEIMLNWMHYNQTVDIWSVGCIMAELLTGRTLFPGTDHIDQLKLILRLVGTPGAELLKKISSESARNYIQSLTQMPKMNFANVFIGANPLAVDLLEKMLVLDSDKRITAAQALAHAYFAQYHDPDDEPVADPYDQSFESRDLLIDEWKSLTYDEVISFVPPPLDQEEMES
row,SMILES,pIC50
1,Cc1ccc(C(=O)NC2CC2)cc1-n1ncc(C(=O)c2cccc(C#N)c2)c1N,> 6.00
2,Cc1ccc(C(=O)NC2CC2)cc1-n1ncc(C(=O)NCC(C)(C)C)c1N,> 6.00
3,Cc1ccc(C(=O)NC2CC2)cc1-n1ncc(C(=O)c2cccc(C=O)c2)c1N,> 6.00
4,Cc1ccc(C(=O)O)cc1-n1ncc(C(=O)c2ccccc2)c1N,5.00 to 6.00
5,Cc1ccc(C(=O)NC2CC2)cc1-n1ncc(C(=O)c2cccc(C3OCCO3)c2)c1N,> 6.00
6,Cc1ccc(C(=O)O)cc1-n1ncc(C(=O)c2cccc(I)c2)c1N,5.00 to 6.00
7,Cc1ccc(C(=O)NC2CC2)cc1-n1ncc(C(=O)c2cccc(-c3nnco3)c2)c1N,> 6.00
8,Cc1ccc(-c2nnc[nH]2)cc1-n1ncc(C(=O)c2ccccc2)c1N,> 6.00
9,CONC(=O)c1ccc(C)c(-n2ncc(C(=O)c3cccc(I)c3)c2N)c1,> 6.00
10,CCOC(=O)c1c(OCC(=O)NCc2cccc(Cl)c2)nn(-c2cc(C(=O)NC3CC3)ccc2C)c1N,> 6.00
11,CCOC(=O)c1c(C)nn(-c2cc(C(=O)NC3CC3)ccc2C)c1N,> 6.00
12,CONC(=O)c1ccc(C)c(-n2ncc(C(=O)c3ccccc3)c2N)c1,> 6.00
13,Cc1ccc(C(=O)NC2CC2)cc1-n1cnc(C(=O)C2CCOCC2)c1N,> 6.00
14,Cc1ccc(C(=O)NC2CC2)cc1-n1cnc(C(=O)c2ccccn2)c1N,> 6.00
15,Cc1ccc(C(=O)NC2CC2)cc1-n1nc(OCCOCc2ccccc2)c(C(=O)c2ccccc2)c1N,> 6.00
16,COc1nn(-c2cc(C(=O)NC3CC3)ccc2C)c(N)c1C(=O)c1ccccc1,> 6.00
17,Cc1ccc(C(=O)NC2CC2)cc1-n1ncc(C(=O)NC2CCCCC2C)c1N (configuration not stated),> 6.00
18,Cc1ccc(C(=O)NC2CC2)cc1-n1cnc(C(=O)C2CCCCC2)c1N,> 6.00
19,Cc1ccc(C(=O)NC2CC2)cc1-n1ncc(C(=O)Nc2ccccc2)c1N,> 6.00
20,Cc1ccc(C(=O)NC2CC2)cc1-n1ncc(C(=O)c2cccc(CO)c2)c1N,> 6.00
21,CCOC(=O)c1cnn(-c2cc(C(=O)NC3CC3)ccc2C)c1N,> 6.00
22,Cc1ccc(C(=O)NC2CC2)cc1-n1ncc(C(=O)c2ccccc2)c1N,> 6.00
23,Cc1ccc(C(=O)NC2CC2)cc1-n1nc(OC2CCN(C(=O)OC(C)(C)C)CC2)c(C(=O)c2ccccc2)c1N,> 6.00
24,Cc1ccc(C(=O)NC2CC2)cc1-n1ncc(C(=O)NC2CCc3ccccc32)c1N (configuration not stated),> 6.00
25,Cc1ccc(C(=O)NC2CC2)cc1-n1ncc(C(=O)c2cccc(OCC(O)CO)c2)c1N (configuration not stated),> 6.00
26,Cc1ccc(C(=O)NC2CC2)cc1-n1cnc(C(=O)c2ccc3c(c2)OCO3)c1N,> 6.00
27,Cc1ccc(C(=O)NC2CC2)cc1-n1ncc(C(=O)c2cccc(I)c2)c1N,> 6.00
